Reference: patent US20250223300A1, “MACROCYCLIC COMPOUND AND PHARMACEUTICAL COMPOSITION AND USE THEREOF” (BETTA PHARMACEUTICALS CO., LTD, priority 2022, published 2025)

What was measured:
Pharmacokinetics in rats = assay type: in vivo, rat; conditions: male SD rats, 5 mg/kg orally by gavage, plasma
Experimental: Male SD rats (200-300 g) were used for rat PK studies. Compounds were prepared and prepared immediately before use. Rats were administered intravenously or orally by gavage. Blood was collected from the rats through the orbital venous plexus, and 100 μL whole blood was collected into K2-EDTA tubes at each time point.
1 mg/kg was given intravenously, and whole blood was collected at 0.083, 0,25, $0.5, 1, 2, 4, 7, 24, 48, and 72 h after administration; 5 mg/kg were given orally by gavage, and whole blood was collected at 0.25, 0.5, 1, 2, 4, 7, 24, 48, and 72 h after administration in different batches, or the rats were killed at 4 and 24 h to obtain brains. The brain tissue samples were homogenized by adding 4 times the volume of buffer, and the whole blood and brain tissue samples were stored in a −80° C. refrigerator for later use. After the above whole blood and brain tissue samples were precipitated with acetonitrile for protein, the supernatant was taken and mixed with water in a ratio of 1:2, and 10 μL was taken for LC-MS/MS detection.

Pharmacokinetics in mice = assay type: in vivo, mouse; conditions: female BALB/c mice, 5 mg/kg orally by gavage, plasma
Experimental: Mouse PK studies were performed using female BALB/c mice (20-30 g). Compounds were prepared and prepared immediately before use. Mice were administered intravenously or orally by gavage. Blood was collected from the mouse orbital venous plexus, and 100 μL of whole blood was transferred to a K2-EDTA tube at each time point.
1 mg/kg was given intravenously, and whole blood was collected at 0.083, 0.25, 0.5, 1, 2, 4, 6 and 24 h after administration; 5 mg/kg were given orally by gavage, and whole blood was collected at 0.25, 0.5, 1, 2, 4, 6, 24 h after administration in different batches, or the mice were killed at 2, 4 and 6 h to obtain brains. Whole blood samples were centrifuged and plasma was separated; brain tissue samples were homogenized by adding 4 times the volume of buffer, and the plasma and brain tissue samples were stored in a −80° C. refrigerator for later use. After the above plasma and brain tissue samples were precipitated with acetonitrile for protein, the supernatant was taken and mixed with water in a 1:1 ratio, and 10 μL was taken for LC-MS/MS detection.

[1] = molecular target: Ba/F3 (EGFR L858R/T790M/C797S) (Homo sapiens, UniProt P00533, T790M/C797S/L858R, cells depend on it); test: Cell proliferation inhibitory activity assay, Ba/F3 EGFR L858R/T790M/C797S; assay type: cell-based; conditions: cell proliferation inhibition, 72 hours, luminescence; read-out: Ba/F3 cells overexpressing different EGFR mutations IC50 (nM) L858R/T790M/C797S
Experimental: (§1) Suspension cells Ba/F3 (EGFR. Dell9/T790M/C797S), Ba/F3 (EGFR L858R/T790M/C797S), Ba/F3 (EGFR Del19/C797S), and Ba/F3 (EGFR L858R/C797S) overexpressing different EGFR mutations were cultured in PRMI 1640 containing 10% FBS and 1% PS, and adherent cells A431 carrying EGFR WT were cultured in DMEM containing 10% FBS and 1% PS. The experimental steps for compound activity detection are as follows: • (1) Take adherent cells in the logarithmic growth phase, digest them with trypsin count them, and then inoculate them into a 96-well plate at a certain density. Incubate them overnight at 37° C. and 5% CO2 to allow them to adhere.
(§2) Y=minimum+([…])/(1+10^((Log IC50−X)*slope)); • X: logarithm of compound concentration; Y: cell survival inhibition rate.

Ba/F3 (EGFR L858R/C797S) = Ba/F3 (EGFR L858R/C797S) (Homo sapiens, UniProt P00533, C797S/L858R, cells depend on it); test: Cell proliferation inhibitory activity assay, Ba/F3 EGFR L858R/C797S; assay type: cell-based; conditions: cell proliferation inhibition, 72 hours, luminescence; read-out: Ba/F3 cells overexpressing different EGFR mutations IC50 (nM) L858R/C797S
Experimental: as §1, §2

[2] = molecular target: Ba/F3 cells overexpressing EGFR Del19/T790M/C797S (Homo sapiens, UniProt P00533, T790M/C797S, cells depend on it, form not given); test: Cell proliferation inhibitory activity assay, Ba/F3 EGFR Del19/T790M/C797S; assay type: cell-based; conditions: cell proliferation inhibition, 72 hours, luminescence; read-out: Ba/F3 cells overexpressing different EGFR mutations IC50 (nM) Del19/T790M/C797S
Experimental: as §1, §2

[3] = test system: A431 cell carrying EGFR WT; test: Cell proliferation inhibitory activity assay, A431; assay type: cell-based; conditions: cell proliferation inhibition, 72 hours, luminescence
Experimental: as §1, §2

Ba/F3 (EGFR Del19/C797S) = Ba/F3 (EGFR Del19/C797S) (Homo sapiens, UniProt P00533, C797S, cells depend on it, form not given); test: Cell proliferation inhibitory activity assay, Ba/F3 EGFR Del19/C797S; assay type: cell-based; conditions: cell proliferation inhibition, 72 hours, luminescence; read-out: Ba/F3 cells overexpressing different EGFR mutations IC50 (nM) Del19/C797S
Experimental: as §1, §2

Molecule	AUC(0-t) (Pharmacokinetics in rats; rat, po)	half-life (Pharmacokinetics in rats; rat, po)	Cmax (Pharmacokinetics in rats; rat, po, read-out: Cmax)	AUC(0-t) (Pharmacokinetics in mice; mouse, po)	half-life (Pharmacokinetics in mice; mouse, po)	Cmax (Pharmacokinetics in mice; mouse, po, read-out: Cmax)	GI50 [1]	GI50 (Ba/F3 (EGFR L858R/C797S))	GI50 [2]	IC50 ([3]; Homo sapiens, A-431)	GI50 (Ba/F3 (EGFR Del19/C797S))	AUClast (Pharmacokinetics in rats)	Cmax (Pharmacokinetics in rats)	T1/2 (Pharmacokinetics in rats)	IC50 [3]	AUClast (Pharmacokinetics in mice)	Cmax (Pharmacokinetics in mice)
Cc1cc2cc(n1)-c1cnn(C)c1OCCC[C@@H](C)CN1/C(=N/C2=O)Nc2ccc(CN3CCN(C)CC3)cc21 [compound 1, reference compound]	96 ng·h/mL	2.94 h	10.5 ng/mL	361 ng·h/mL	4.22 h	32.8 ng/mL	–	–	–	–	–	–	–	–	–	–	–
CO[C@@H]1CCC(N2CCC3(CCN(c4ccc5nc6n(c5c4)CCCCCOc4ccncc4-c4cc(cc(C)n4)C(=O)N6)CC3)CC2)C[C@@H]1F (stereo partly drawn) [Example 15, 5^6-(9-((3S,4R)-3-fluoro-4-methoxypiperidin-1-yl)-3-azaspiro[5.5]undecan-3-yl)-2^6-methyl-5^1H-11-oxa-4-aza-5(2,1)-benzo[d]imidazola-1(3,4),2(2,4) -dipyridinacycloundecaphan-3-one]	3390 ng·h/mL	–	104 ng/mL	–	–	–	–	–	–	–	–	–	–	–	–	–	–
Cc1cc2cc(n1)-c1cnn(C)c1OCCC[C@@H](C)CN1/C(=N/C2=O)Nc2ccc(CN3CCC4(CC3)COC4)cc21 [compound 2, reference compound]	132 ng·h/mL	–	27.3 ng/mL	–	–	–	–	–	–	–	–	–	–	–	–	–	–

The remaining lines, values ahead:

AUC(0-t) (Pharmacokinetics in rats; rat, po)	half-life (Pharmacokinetics in rats; rat, po)	Cmax (Pharmacokinetics in rats; rat, po, read-out: Cmax)	AUC(0-t) (Pharmacokinetics in mice; mouse, po)	half-life (Pharmacokinetics in mice; mouse, po)	Cmax (Pharmacokinetics in mice; mouse, po, read-out: Cmax)	GI50 [1]	GI50 (Ba/F3 (EGFR L858R/C797S))	GI50 [2]	IC50 ([3]; Homo sapiens, A-431)	GI50 (Ba/F3 (EGFR Del19/C797S))	AUClast (Pharmacokinetics in rats)	Cmax (Pharmacokinetics in rats)	T1/2 (Pharmacokinetics in rats)	IC50 [3]	AUClast (Pharmacokinetics in mice)	Cmax (Pharmacokinetics in mice)	Molecule
1840 ng·h/mL	18.8 h	116 ng/mL	–	–	–	4.3 nM	5.3 nM	1.4 nM	1750 nM	0.1 nM	–	–	–	–	–	–	Cc1cc2cc(n1)-c1cnc(F)cc1OCCC[C@@H](C)Cn1c(nc3ccc(N4CCC5(CC4)CCN(C4COC4)CC5)cc31)NC2=O [Example 81, (R)-1^6-fluoro-2^6,7-dimethyl-5^6-(9-(oxetan-3-yl)-3,9-diazaspiro [5.5]undecan-3-yl)-5^1H-11-oxa-4-aza-5(2,1)-benzo[d] imidazola-1(3,4),2(2,4)-dipyridinacyclo-undecaphan-3-one]
917 ng·h/mL	12.4 h	57.5 ng/mL	3460 ng·h/mL	20.1 h	215 ng/mL	1.6 nM	4.7 nM	0.8 nM	700 nM	0.5 nM	–	–	–	–	–	–	Cc1cc2cc(n1)-c1cnccc1OCCCCCn1c(nc3ccc(N4CCC5(CC4)CCN(C4COC4)CC5)cc31)NC2=O [Example 52, 2^6-methyl-5^6-(9-(oxetan-3-yl)-3,9-diazaspiro [5.5]undecan-3-yl)-5^1H-11-oxa-4-aza-5(2,1)-benzo[d] imidazola-1(3,4),2(2,4)-dipyridinacyclo-undecaphan-3-one]
–	–	–	–	–	–	3.4 nM	5.2 nM	1.7 nM	–	0.64 nM	1611 ng·h/mL	42.5 ng/mL	26.4 h	759 nM	1495 ng·h/mL	41.9 ng/mL	5^6-(9-((2R,6S)-2,6- dimethyl- tetrahydro-2H- pyran-4-yl)-3,9- diazaspiro[5.5] undecan-3-yl)- 2^6-methyl-5^1H- 11-oxa-4-aza- 5(2,1)-benzo [d]imidazola- 1(3,4),2(2,4)- dipyridinacyclo- undecaphan- 3-one [Example 91]
–	–	–	–	–	–	12 nM	17 nM	4.7 nM	770 nM	2.9 nM	–	–	–	–	–	–	Cc1cc2cc(n1)-c1cnccc1OCCC[C@@H](C)Cn1c(nc3ccc(N4CCC5(CC4)CCN(C4COC4(C)C)CC5)cc31)NC2=O (stereo partly drawn) [Example 82, (7R)-5^6-(9-(2,2-dimethyloxetan-3-yl)-3,9-diazaspiro[5.5]undecan-3-yl)-2^6,7-dimethyl-5^1H-11-oxa-4-aza-5(2,1)-benzo [d]imidazola-1(3,4),2(2,4)-dipyridinacyclo-undecaphan-3-one]
